Measurements from PubChem BioAssay (NCI).
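Tested at 5 concentrations; 48 h exposure; 96-well plates; endpoints linearly interpolated, else capped at highest concentration. Definition used: TGI = concentration required for complete inhibition of growth.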

Tests used:
Test in all cases: inhibition of tumour cell growth, NCI panel, 48 h
[1] = test system: 786-0 renal
[2] = test system: HCT-15 colon
[3] = test system: KM12 colon
[4] = test system: MOLT-4 leukemia
[5] = test system: NCI-H226 lung
[6] = test system: NCI-H23 lung
[7] = test system: OVCAR-8 ovarian
[8] = test system: SK-OV-3 ovarian

Structure (SMILES) | TGI [1] | TGI [2] | TGI [3] | TGI [4] | TGI [5] | TGI [6] | TGI [7] | TGI [8]
CC(C)Cc1ccc(C(C)/C=C2\CCC(CN3CCCC3)C2=O)cc1 (centres undefined) | 3.73 µM | 13.3 µM | 7.74 µM | 9.64 µM | 33.1 µM | 26.6 µM | 18 µM | 33.9 µM
c1ccc2c(c1)nnn2CNc1ccc(N2CCOCC2)cc1 | > 100 µM | > 100 µM | > 100 µM | > 100 µM | > 100 µM | > 100 µM | > 100 µM | > 100 µM
Cc1[nH]c2ccccc2c1C1CC(=O)NC1=O (centres undefined) | > 100 µM | > 100 µM | > 100 µM | > 100 µM | > 100 µM | > 100 µM | > 100 µM | > 100 µM
S=P(c1ccccc1)(c1ccccc1)C1(C2(P(=S)(c3ccccc3)c3ccccc3)CC2)CC1 | > 100 µM | > 100 µM | > 100 µM | > 100 µM | > 100 µM | > 100 µM | > 100 µM | –
O=C1NC(=O)C(=O)C(c2nc3ccccc3s2)C1=O | > 100 µM | > 100 µM | > 100 µM | > 100 µM | > 100 µM | > 100 µM | > 100 µM | > 100 µM
CCC(O)(c1ccc(OC)cc1)C(c1ccc(OCc2ccccc2)cc1)c1ccc(OCc2ccccc2)cc1 (centres undefined) | > 100 µM | > 100 µM | > 100 µM | > 100 µM | > 100 µM | > 100 µM | > 100 µM | > 100 µM
CC(Oc1ccc(OCC2CCCCC2)cc1)C(=O)O (centres undefined) | > 100 µM | > 100 µM | > 100 µM | > 100 µM | > 100 µM | > 100 µM | > 100 µM | > 100 µM
O=C(N/C(=C\c1ccc([N+](=O)[O-])cc1)c1nc2ccc(Cl)cc2[nH]1)c1ccccc1 | 53 µM | 31.2 µM | 61.4 µM | 54 µM | – | 44.6 µM | > 100 µM | 94.6 µM
NC1=NC(c2ccccc2)CC(c2cc(Cl)cc(Br)c2O)=N1 (centres undefined) | 31.5 µM | 31.1 µM | 26.1 µM | 11.6 µM | 34.3 µM | 26 µM | 38.5 µM | 42.7 µM
CCOC(=O)/C(C#N)=C\C=C1/C=CNC2=NCCN21 | > 100 µM | > 100 µM | > 100 µM | > 100 µM | > 100 µM | > 100 µM | > 100 µM | > 100 µM
CC(=O)O[C@H]1CCC2[C@@H]3CCC4Nc5c(cnn5-c5ccccc5)C[C@]4(C)C3CC[C@@]21C (some centres undefined) | 67.5 µM | 47.8 µM | 37.8 µM | 33.7 µM | 27.8 µM | 21.2 µM | 39.6 µM | 42.4 µM
C[C@@H](NC1CCC[C@@H]1O)c1ccccc1 (some centres undefined) | > 100 µM | > 100 µM | > 100 µM | > 100 µM | > 100 µM | – | > 100 µM | > 100 µM
CC1=C(/C=C/C2=CC(=C\C(=O)O)/CC(C3=C(C)CCCC3(C)C)C2)C(C)(C)CCC1 (centres undefined) | 28.4 µM | – | 24.1 µM | 21.7 µM | 23.9 µM | 27.6 µM | 27.8 µM | 27.7 µM
O=C(O)CCSC(=O)Nc1cccc([N+](=O)[O-])c1 | > 100 µM | > 100 µM | > 100 µM | > 100 µM | – | > 100 µM | > 100 µM | –
O=C(O)CN(c1ccccc1)S(=O)(=O)c1ccc(Cl)cc1 | > 100 µM | > 100 µM | – | > 100 µM | – | > 100 µM | > 100 µM | > 100 µM
CCCC1C(=O)C(CC)Cc2c(OC)ccc(OC)c21 (centres undefined) | > 100 µM | > 100 µM | > 100 µM | > 100 µM | > 100 µM | – | > 100 µM | > 100 µM
CC(C(=O)c1ccccc1)C1(O)C(=O)Nc2ccccc21 (centres undefined) | > 100 µM | > 100 µM | > 100 µM | > 100 µM | > 100 µM | > 100 µM | – | > 100 µM
C[Si](C)(C)/C=C\CCCN1C(=O)CCC1=O | > 100 µM | > 100 µM | > 100 µM | > 100 µM | – | > 100 µM | > 100 µM | > 100 µM
CCOC(=O)CNC1C(NC(C)=O)C(OC)OC2COC(c3ccccc3)OC21 (centres undefined) | > 100 µM | > 100 µM | > 100 µM | – | > 100 µM | > 100 µM | > 100 µM | > 100 µM
CC([C@H]1CCC2C3CCC4CC5(CC[C@]4(C)C3CC[C@@]21C)c1ccccc1C(=O)N5C)N(C)C (some centres undefined) | 29.8 µM | > 100 µM | > 100 µM | 91.7 µM | – | > 100 µM | > 100 µM | > 100 µM
CCCCCCCC(=O)OCC1OC(n2cc(F)c(=O)[nH]c2=O)C(NC(=O)OCc2ccccc2)C(OC(=O)CCCCCCC)C1O (centres undefined) | 65.1 µM | > 100 µM | > 100 µM | > 100 µM | – | > 100 µM | > 100 µM | > 100 µM
